# Reference: EP1247528A1, “Pharmaceutical or cosmetic compositions containing extracts from Arachis hypogaea L” (Cognis France S.A., priority 2001, dated 2002)
# How the values were obtained:
# [1] = DPPH-Test (chemical test, activity against free radicals)
# From the text: (§1) Die optische Dichte des Extraktes lag bei 513 nm. Als erstes Testsubstrat wurde Diphenylpicrylhydrazyl (DPPH) gewählt, ein purpurrot gefärbtes stabiles Radikal, welches durch Inkontaktbringen mit Radikalfängern in sein ungefärbtes Leucoderivat übergeht. Der Farbwechsel kann photometrisch verfolgt werden. Die Meßergebnisse sind in Tabelle 2 zusammengefaßt ("DPPH-Test").. In einem weiteren Test wurde Xanthin Oxidase als Testsystem gewählt. Das Enzym bewirkt bei oxidativem Stress die Umwandlung von Purinbasen, wie z.B. Adenin oder Guanin in […], wobei die intermediär gebildeten Sauerstoffradikale durch Reaktion mit Luminol über die Lumineszenz nachgewiesen und quantitativ bestimmt werden können. In Gegenwart von Substanzen mit radikalfangenden Eigenschaften vermindert sich die Lumineszenzausbeute. Der NBT-Wert bestimmt den Gehalt von […], welches aus NBT durch das Sauerstoffradikal gebildet wird. Die optische Dichte wurde bei 540 nm bestimmt.
# Xanthin Oxidase [2] = assay: Luminol-Test (xanthine oxidase system, luminescence); type: biochemical
# From the text: as §1
# (§2) Diese Ergebnisse sind in Tabelle 3 zusammengefaßt; wieder ist die Inhibierung in %-absolut angegeben ("Luminol-Test"). Tab.
# Xanthin Oxidase [3] = assay: Luminol + Microperoxydase test (xanthine oxidase system); type: biochemical
# From the text: as §1, §2
# Xanthin Oxidase [4] = assay: NBT test (xanthine oxidase system, optical density at 540 nm); type: biochemical
# From the text: as §1, §2
# [5] = system: menschlichen Keratinozyten; assay: Cell protection against UVB on human keratinocytes cultured in vitro; type: cell-based; details: UVB 50 mJ/cm^2; 0,03 % test substance
# Procedure: Methode: Der Effekt von UVB-Strahlung wurde an Keratinocyten in vitro untersucht indem die Freisetzung des Cytoplasaenzyms LDH (Lactat Dehydrogenase) bestimmt wurde. Dieses Enzym dient als Marker für eine Zellschädigung.
# Zur Durchführung der Tests wurde ein definiertes Medium, das fötales Kälberserum enthält, mit den Keratinozyten beimpft und der Pflanzenextrakt (mit Saline-Lösung verdünnt) 72 Stunden nach dem Beimpfen zugegeben. […]
# Nach weiterer 1 tägiger Inkubation bei 37 °C und bei 5 % CO2 wurde der LDH-Gehalt im Überstand bestimmt. Der Gehalt von LDH- (Lactatdehydrogenase) wurde mittels einer Enzymreaktion bestimmt (verwendetes Kit zur Untersuchung des LDH Gehaltes von der Firma Roche). Die Anzahl adhärenter Keratinozyten wird (nach Trypsinbehandlung) mit einem Partikelzählgerät bestimmt. Tab.
# [6] = Antioxidative capacity: inhibition of lipid peroxidation in liposomes (AOP50); type: biochemical; details: concentration at which lipid peroxidation is reduced by 50 %; Fe(II) ascorbate, 37 °C, 45 min, MDA-thiobarbituric acid at 532 nm
# Procedure: Als Maß für die antioxidative Kapazität der Erdnusshäutchen Extrakte wurde ihre Fähigkeit bestimmt, die Lipidperoxidation in Liposomen zu verhindern. Dazu wurde eine 0,2 Gew.-%ige Liposomen Suspension aus Sojalecithin in Phosphatpuffer hergestellt. Die Lipidperoxidation wurde durch Zugabe eines Eisen(II)ascorbat Komplexes (10mM Fe(II)SO4, 50 mM Ascorbat) initiiert. Die Inkubation wurde bei 37 °C für 45 min. durchgeführt. Als Endprodukt der Lipidperoxidation entsteht Malondialdeyd, welches über eine Farbreaktion mit Thiobarbitursäure quantifiziert wird (photometrische Bestimming des Malondialdehyd-Thiobarbitursäure Komplexes bei 532 nm). Zur Bestimmung der antioxidativen Kapazität der Erdnusshäutchen Extrakte wurden diese in unterschiedlichen Konzentration vor der Zugabe des Eisen(II)ascorbat Komplexes zum Inkubationsansatz gegeben. Ermittelt wurde die Konzentration an Pflanzenextrakt (in µg/ml), bei der die Lipidperoxidation um 50 % verringert ist (= AOP50) im Vergleich zur Bestimmung ohne Zusatz an Pflanzenextrakt. D.h. je geringer die angegebene Konzentration AOP50, desto höher ist die antioxidative Kapazität des untersuchten Erdnussextraktes. Als Referenzsubstanz diente das Antioxidans n-Propylgallat. Tab.
# [7] = Electron spin resonance spectroscopy (ESR), radical scavenging with spin trap DMPO; details: 5 mM solution (comparison)
# From the text: Die Methode der Elektronenspinresonanz Spektroskopie beruht auf dem Prinzip der Generierung kurzlebiger Radikale über chemische Radikalgeneratoren, der Stabilisierung und Akkumulierung der Radikale mittels Radikalfänger (Spin-Trapper-Substanzen) und der Detektion der für die einzelnen Radikale typischen ESR-Spektren. Die radikalfangenden Eigenschaften der zu untersuchenden Substanzen werden durch die Abnahme der Signalintensitäten der getrappten Radikale charakterisiert. Im vorliegenden Fall wurde als Radikal Fänger (Spin Trapper) DMPO (5,5-Dimethyl-1-pyrrolin-N-oxid) verwendet. Die Signalintensität des mit Hilfe des DMPO gebildeten stabilen DMPO-Hydroxyadduktes wurde 100 % gesetzt. Die Abnahme dieses Signals in Abhängigkeit von der Konzentration des eingesetzten Pflanzenextraktes, ist ein Nachweis für die Radikal fangenden Eigenschaften der Extrakte.
# Der Extrakt aus Beispiel 1 wurde mittels der ESR Spektroskopie untersucht. Bereits in einer Konzentration von 0,01 Gew.-% führte dieser Extrakt zu einer Abnahme des DMPO-Hydroxyaddukt Signals um 79 % auf ein Restsignal von 21 %. Bei einer Konzentration von 0,05 % zeigte sich eine Abnahme des Signals um 89 % und bei einer Konzentration von 0,5 % fand eine völlige Löschung des Signals statt. Als Vergleich diente eine 5 mM α-Tocopherol Lösung, die eine Abnahme des Signals um 65 % bewirkte.
# humanen Fibroblasten = assay: Cell protection against UVA on human fibroblasts cultured in vitro; type: cell-based; details: UVA 20 J/cm^2; 0,0003 % test substance
# Procedure: Methode: Zur Durchführung dieser Tests wurde ein definiertes Kulturmedium mit den Fibroblasten mit fötalem Kälberserum beimpft und der Pflanzenextrakt (in dem definierten Medium mit 10 % Fötalem Kälberserum) 72 Stunden nach dem Beimpfen zugegeben.
# Nach 48 stündiger Inkubation bei 37 °C und einem CO2-Gehalt von 5 % wurde das Kulturmedium durch Saline-Lösung (physiologische NaCI-Lösung) ersetzt und die Fibroblasten wurden mit einer UVA-Dosis bestrahlt (365 nm, 20 J/cm^2; Röhren: MAZDA FLUOR TFWN40).
# Nach der Beendigung der Bestrahlung wurde der MDA-Spiegel (Malonaldialdehyd-Spiegel) in der überstehenden Natriumchlorid-Lösung quantitativ durch Reaktion mit Thiobarbitursäure bestimmt.
# Außerdem wurde der Gehalt an Proteinen nach der Methode von Bradford bestimmt und der Gehalt an GSH untersucht wobei es sich um reduziertes Glutathion handelt. Der Gehalt an GSH wurde bstimmt nach der Methode von Hissin (Hissin PJ, Hilf R., A fluorometric method for determination of oxydised and reduced glutathione tissues, Anal. Biochem. 74, 214-226, 1976). Tab.
EC50 in % DPPH-Test [1],EC50 in % Luminol (Xanthin Oxidase [2]),EC50 in % Luminol + Microperoxydase (Xanthin Oxidase [3]),EC50 in % NBT (Xanthin Oxidase [4]),Compound,further results
"0,0013%","0,0006%","0,0058%","0,5909%",O=C1O[C@H]([C@@H](O)CO)C(O)=C1O [Ascorbinsäure],–
–,–,–,–,CC(=O)Oc1ccccc1C(=O)O [Aspirin],Anzahl Keratinocyten [5]: 52 % im Vergleich zur Kontrolle; Gehalt an LDH [5]: 46 % im Vergleich zur Kontrolle; Gehalt an PGE2 [5]: 4 % im Vergleich zur Kontrolle
–,–,–,–,CCCOC(=O)c1cc(O)c(O)c(O)c1 [n-Propylgallat],"AOP50 [6]: 2,9 µg/ml"
–,–,–,–,Cc1c(C)c2c(c(C)c1O)CC[C@@](C)(CCC[C@H](C)CCC[C@H](C)CCCC(C)C)O2 [α-Tocopherol],Abnahme des Signals [7]: 65%
"0,0067%",Kein Effekt bis zu 1%,Kein Effekt bis zu 1%,Kein Effekt bis zu 1%,Tocopherol,Freigesetzter MDA (humanen Fibroblasten): 19 % im Vergleich zur Kontrolle; GSH/Protein (humanen Fibroblasten): 77 % im Vergleich zur Kontrolle; Zellproteine (humanen Fibroblasten): 95 % im Vergleich zur Kontrolle
